Experimental data: EP2966448B1, “METHOD FOR THE PREDICTION OR PROGNOSIS OF THE RESPONSE OF A HUMAN SUBJECT SUFFERING FROM CANCER TO TREATMENT WITH AN ANTAGONIST OF THE NK1 RECEPTOR” (priority 2013, dated 2014)
Read-outs that look alike come from different tables or passages of the source.

Tests used:
Renal cell carcinoma = assay: Inhibition of primary tumor cell cultures (48 hours) vs NK1 receptor immunostaining (Example 1); format: cell-based; conditions: Homo sapiens, 1 micromolar, read-out: Percentage of inhibition of cell cultures
Description: (§1) Cell cultures. To obtain tumor cells from human primary tumors we used the method described in De Bari et al. (De Bari et al. 2001). Briefly, small pieces of the tumors were digested into a hyaluronidase solution (Sigma-Aldrich, USA) at a concentration of 1 mg/ml during 15 minutes at 37°C, and then they were treated with 6 mg/ml of collagenase type IV (Invitrogen) during 2 hours at 37°C. Consecutively, cells were washed, and resuspended in the DMEM culture medium with high concentration of glucose (Dulbecco's Modified Eagle's Medium, Invitrogen) supplemented with 1% of antibiotics-antimycotics (Invitrogen) and with 1% of sodium pyruvate (Invitrogen), and the cells were seeded in culture slides at a concentration of 10.000 cells per square centimeter. When cells reached confluence, the adherent cells were separated using sterile trypsin at 0,5% (Invitrogen) and they were used among passages 3 and 9. For the assays shown next, tumor cells were seeded on slides at a concentration of 25.000 cells per well. A total of 6 wells containing the tumor cells were used as survival control. […] All the cultures were kept during 48 hours and later on recollected for their analysis.
(§2) Immunohistochemistry techniques. The presence of NK1 receptors was also analyzed using immunohistochemistry techniques. Briefly, a sample of each of the cultures of the cell lines used in the present invention, was centrifuged (5 minutes at 1.500 rpm) and the pellet obtained was dehydrated using increasing concentrations of ethanol and, finally, xylol. Then, said dehydrated samples were embedded in paraffin, creating a block of cells. Such paraffin blocks were cut with a microtome at 5 microns thickness, and were placed on microscope slides adequate to perform immunohistochemistry techniques. Consecutively, they were de-paraffinized by immersing them in xylol, to be finally hydrated using a solution containing decreasing concentrations of ethanol, and finally submerged them into water. […] After this, the samples were left to cool down at room temperature for 10 minutes. The endogenous peroxidase activity was blocked with 3% peroxide of hydrogen for 30 minutes at room temperature. After washing the samples with 0.05 M of Tris buffer, they were incubated with 10% non-immune pork serum at for 30 minutes at room temperature. To analyze the expression of NK1 receptors, the cellular samples were incubated in the presence of anti-NK1 antibodies (S8305, Sigma-Aldrich) diluted 1:1000, overnight at 4°C. Afterwards, the samples were washed in Tris buffer 0.05 M at room temperature. The next step was the addition of Envision System-HRP (Dako) reagents for 30 minutes at room temperature. Then, the samples were washed again in Tris buffer 0.05 M and the immunoreactivity was visualized through light microscopy with a chromogenic solution containing 3,3'-Diaminobenzidine (DAB+; Dako, USA). To differentiate the cell nuclei, they were slightly stained with hematoxylin. As negative control, it was used samples not incubated with the primary antibody anti-NK1, which was replaced by non-immune serum. All the samples were evaluated.
(§3) To value the immunostaining in each of the cases six cuts were performed to be analyzed by the immunohistochemistry technique. In each of the six cuts, it was counted cells in 20 fields (magnification 400x) using an Olympus microscope (model CX31). In each field it was counted the total number of cells and the number of cells presenting immunostaining, calculating afterwards the percentage of cells which presented immunostaining.

Glioma = assay: as above; format: cell-based; conditions: Homo sapiens, 1 micromolar, read-out: Percentage of inhibition of cell cultures
Description: as §1, §2, §3

[1] = system: Thyroid carcinoma (follicular carcinoma); assay: Inhibition of primary tumor cell cultures vs Kras mutation (Example 2); format: cell-based, human; conditions: Thyroid carcinoma (follicular carcinoma), 100 micromolar
Description: (§4) To obtain tumor cells from human primary tumors we used the method described in De Bari et al. (De Bari et al. 2001). Briefly, small pieces of the tumors were digested into a hyaluronidase solution (Sigma-Aldrich, USA) at a concentration of 1 mg/ml during 15 minutes at 37°C, and then they were treated with 6 mg/ml of collagenase type IV (Invitrogen) during 2 hours at 37°C. Consecutively, cells were washed, and resuspended in the DMEM culture medium with high concentration of glucose (Dulbecco's Modified Eagle's Medium, Invitrogen) supplemented with 1% of antibiotics-antimycotics (Invitrogen) and with 1% of sodium pyruvate (Invitrogen), and the cells were seeded in culture slides at a concentration of 10.000 cells per square centimeter. When cells reached confluence, the adherent cells were separated using sterile trypsin at 0,5% (Invitrogen) and they were used among passages 3 and 9. For the assays shown next, tumor cells were seeded on slides at a concentration of 25.000 cells per well. A total of 6 wells containing the tumor cells were used as survival control. […] All the cultures were kept during 48 hours and later on recollected for their analysis.
(§5) In each case the presence or not of mutations in K-ras gene was determined.
(§6) To determine the existence of mutations in the K-ras gene DNA from cancer tumor cells was extracted from samples obtained from the different cancer tumor cells, using DNA extraction kits from Takara (Madison, WI, US) or Ambion (Huntingdon, Cambridgeshire, United Kingdom), following the manufacturer's instructions, and as it has been previously published (Di Fiore F, et al. 2007). Consecutively it was analyzed by sequencing the exon 2 of the KRAS gene, , by means of PCR amplification from previously extracted cancer tumor DNA, using the following sense primer (SEQ ID NO. 15): 5'-[sequence]-3' and anti-sense primer (SEQ ID NO. 16): 5'-[sequence]-3'. After the purification using the Qiagen extraction kit, the PCR products were sequenced using the Big Dye Terminator Kit V3.1 (Applied Biosystems, Foster City, CA, U.S.) and an ABI Prism 377 or 3100 DNA sequencer (Applied Biosystems). The presence of a heterozygous mutation in the KRAS gene in cancer tumor cells of the cultures was defined as the appearance of a mutant peak of a height of at least a third of the wild type. All the sequence analysis were executed at least twice in two independent PCR.
(§7) The antibody against NK1 receptor (Table 16) was used at 1/50 concentration. The percentages of inhibition are expressed in percentage of variation in relation to control ± standard deviation.

[2] = system: Urinary bladder carcinoma (transitional cell carcinoma); assay: as above; format: cell-based, human; conditions: Urinary bladder carcinoma (transitional cell carcinoma), 100 micromolar
Description: as §4, §5, §6, §7

[3] = system: Non Hodgkin Lymphoma B (diffuse B cell lymphoma); assay: as above; format: cell-based, human; conditions: Non Hodgkin Lymphoma B (diffuse B cell lymphoma), 100 micromolar
Description: as §1, §5, §6
(§8) The percentages of inhibition are expressed in percentage of variation in relation to control ± standard deviation.

[4] = system: Thyroid carcinoma (folliculary type); assay: Inhibition of primary tumor cell cultures (48 hours) vs NK1 receptor immunostaining (Example 1); format: cell-based; conditions: Homo sapiens, 1 micromolar, read-out: Percentage of inhibition of cell cultures
Description: as §1, §2, §3

[5] = system: Melanoma (Nodular Melanoma); assay: Inhibition of primary tumor cell cultures vs Kras mutation (Example 2); format: cell-based, human; conditions: Melanoma (Nodular Melanoma), 100 micromolar
Description: as §1, §5, §6, §8

Prostate carcinoma = assay: as above; format: cell-based, human; conditions: Prostate carcinoma, 100 micromolar
Description: as §1, §5, §6, §8

[6] = system: Carcinoma of the uterine cervix; assay: Inhibition of primary tumor cell cultures (48 hours) vs NK1 receptor immunostaining (Example 1); format: cell-based; conditions: Homo sapiens, 1 micromolar, read-out: Percentage of inhibition of cell cultures
Description: as §1, §2, §3

Hodgkin lymphoma = assay: as above; format: cell-based; conditions: Homo sapiens, 1 micromolar, read-out: Percentage of inhibition of cell cultures
Description: as §1, §2, §3

[7] = system: human primary tumor cells; assay: Inhibition of primary tumor cell cultures vs low or high expression of the truncated form of NK1 receptor (Example 5; tumor type per table line); format: cell-based; conditions: for Percentage of inhibition of cell cultures: 100 micromolar
Description: as §1
The presence of the truncated form of NK1 receptor was determined and then cells were cultured in presence of several antagonists of the NK1 receptor.
In each case the presence of the truncated form of the NK1 receptor was determined.
To determine the presence of the truncated form of the gene of NK1 receptor PCR technique was performed (Polymerase Chain Reaction). The extraction of RNA, amplifications of PCR, cycle conditions and quantitative analysis were executed as it has been previously described. The specific primers were the following: For the full-length NK1R receptor (NM_001058.3; forward (SEQ ID NO: 17)-: 5'-[sequence]-3 ' and reverse- (SEQ ID NO:18): 5'-[sequence]-3') and for the truncated NK1receptor (NM_015727.2; forward (SEQ ID NO: 19): 5'-[sequence]-3 and reverse (SEQ ID NO;20): 5'-[sequence]-3').
Cases were distributed in two groups: • Group A -low expression of the truncated form of NK1 receptor- for those cases wherein the expression of the truncated form of NK1 receptor was less than double the expression of the full length form of such receptor. • Group B -high expression of the truncated form of NK1 receptor- for those cases wherein the expression of the truncated form of the NK1 receptor was higher than double the expression of the full length form of such receptor.
The percentages of inhibition are expressed in percentage of variation in relation to the control ± standard deviation.

[8] = NK1 receptor immunostaining Group 3 (more than 80% of the cells)
[9] = NK1 receptor immunostaining Intensity grade 1
[10] = NK1 receptor immunostaining Intensity grade 2
[11] = NK1 receptor immunostaining Intensity grade 3
[12] = NK1 receptor immunostaining Group 1 (less than 20% of the cells)
[13] = NK1 receptor immunostaining Group 2 (20-80% of the cells)
[14] = Cases with Kras non-mutated (wild type)

What does the source list for `Cc1cc(F)ccc1[C@H]1CNCCN1C(=O)N(C)[C@H](C)c1cc(C(F)(F)F)cc(C(F)(F)F)c1` [Vestipitant]?
inhibition at 1 µM (Renal cell carcinoma; [8]): 93 ± 6%; inhibition at 1 µM (Renal cell carcinoma; [9]): 21 ± 3%; inhibition at 1 µM (Renal cell carcinoma; [10]): 46 ± 4%; inhibition at 1 µM (Renal cell carcinoma; [11]): 93 ± 4%; inhibition at 1 µM (Glioma; [12]): 15 ± 4%; inhibition at 1 µM (Glioma; [13]): 45 ± 4%; inhibition at 1 µM (Glioma; [8]): 92 ± 4%; inhibition at 1 µM (Glioma; [9]): 19 ± 3%; inhibition at 1 µM (Glioma; [10]): 48 ± 5%; inhibition at 1 µM (Glioma; [11]): 92 ± 3%; Percentage of inhibition of cell cultures ([1]; Cases with Kras mutated): 25±3 percentage; Percentage of inhibition of cell cultures [1, 14]: 97±4 percentage; Percentage of inhibition of cell cultures ([2]; Cases with Kras mutated): 25±5 percentage; Percentage of inhibition of cell cultures [2, 14]: 95±6 percentage; Percentage of inhibition of cell cultures ([3]; Cases with Kras mutated): 24±4 percentage; Percentage of inhibition of cell cultures [3, 14]: 97±6 percentage; inhibition at 1 µM [4, 12]: 16 ± 3%; inhibition at 1 µM [4, 13]: 45 ± 3%; inhibition at 1 µM [4, 8]: 95 ± 5%; inhibition at 1 µM [4, 9]: 19 ± 4%; inhibition at 1 µM [4, 10]: 46 ± 4%; inhibition at 1 µM [4, 11]: 95 ± 3%; Percentage of inhibition of cell cultures ([5]; Cases with Kras mutated): 23±5 percentage; Percentage of inhibition of cell cultures [5, 14]: 96±5 percentage; Percentage of inhibition of cell cultures (Prostate carcinoma; Cases with Kras mutated): 24±4 percentage; Percentage of inhibition of cell cultures (Prostate carcinoma; [14]): 96±4 percentage; inhibition at 1 µM [6, 12]: 17 ± 4%; inhibition at 1 µM [6, 13]: 46 ± 3%; inhibition at 1 µM [6, 8]: 94 ± 4%; inhibition at 1 µM [6, 9]: 19 ± 3%; inhibition at 1 µM [6, 10]: 48 ± 3%; inhibition at 1 µM [6, 11]: 94 ± 3%; inhibition at 1 µM (Hodgkin lymphoma; [12]): 14 ± 3%; inhibition at 1 µM (Hodgkin lymphoma; [13]): 46 ± 3%; inhibition at 1 µM (Hodgkin lymphoma; [8]): 92 ± 5%; inhibition at 1 µM (Hodgkin lymphoma; [9]): 16 ± 4%; inhibition at 1 µM (Hodgkin lymphoma; [10]): 48 ± 3%; inhibition at 1 µM (Hodgkin lymphoma; [11]): 92 ± 4%; Percentage of inhibition of cell cultures ([7]; Glioma (astrocytoma), Cases with high expression of the truncated form of NK1 receptor (Group B)): 94±5 percentage; Percentage of inhibition of cell cultures ([7]; Glioma (astrocytoma), Cases with low expression of the truncated form of NK1 receptor (Group A)): 25±5 percentage; Percentage of inhibition of cell cultures ([7]; Lung carcinoma (non small cell lung carcinoma), Cases with high expression of the truncated form of NK1 receptor (Group B)): 94±4 percentage; Percentage of inhibition of cell cultures ([7]; Lung carcinoma (non small cell lung carcinoma), Cases with low expression of the truncated form of NK1 receptor (Group A)): 26±4 percentage; Percentage of inhibition of cell cultures ([7]; Melanoma (Nodular Melanoma), Cases with high expression of the truncated form of NK1 receptor (Group B)): 96±4 percentage; Percentage of inhibition of cell cultures ([7]; Melanoma (Nodular Melanoma), Cases with low expression of the truncated form of NK1 receptor (Group A)): 24±5 percentage; Percentage of inhibition of cell cultures ([7]; Non Hodgkin Lymphoma B (diffuse B cell lymphoma), Cases with high expression of the truncated form of NK1 receptor (Group B)): 98±5 percentage; Percentage of inhibition of cell cultures ([7]; Non Hodgkin Lymphoma B (diffuse B cell lymphoma), Cases with low expression of the truncated form of NK1 receptor (Group A)): 23±5 percentage; Percentage of inhibition of cell cultures ([7]; Non Hodgkin Lymphoma T (diffuse T cell lymphoma), Cases with high expression of the truncated form of NK1 receptor (Group B)): 98±4 percentage; Percentage of inhibition of cell cultures ([7]; Non Hodgkin Lymphoma T (diffuse T cell lymphoma), Cases with low expression of the truncated form of NK1 receptor (Group A)): 23±4 percentage; Percentage of inhibition of cell cultures ([7]; Prostate carcinoma, Cases with high expression of the truncated form of NK1 receptor (Group B)): 95±6 percentage; Percentage of inhibition of cell cultures ([7]; Prostate carcinoma, Cases with low expression of the truncated form of NK1 receptor (Group A)): 24±6 percentage; Percentage of inhibition of cell cultures ([7]; Thyroid carcinoma (follicular carcinoma), Cases with high expression of the truncated form of NK1 receptor (Group B)): 95±5 percentage; Percentage of inhibition of cell cultures ([7]; Thyroid carcinoma (follicular carcinoma), Cases with low expression of the truncated form of NK1 receptor (Group A)): 27±3 percentage; Percentage of inhibition of cell cultures ([7]; Thyroid carcinoma (papillary carcinoma), Cases with high expression of the truncated form of NK1 receptor (Group B)): 96±6 percentage; Percentage of inhibition of cell cultures ([7]; Thyroid carcinoma (papillary carcinoma), Cases with low expression of the truncated form of NK1 receptor (Group A)): 26±5 percentage; Percentage of inhibition of cell cultures ([7]; Undifferentiated Pleomorphic Sarcoma (malignant fibrous histiocytoma grade 3), Cases with high expression of the truncated form of NK1 receptor (Group B)): 95±3 percentage; Percentage of inhibition of cell cultures ([7]; Undifferentiated Pleomorphic Sarcoma (malignant fibrous histiocytoma grade 3), Cases with low expression of the truncated form of NK1 receptor (Group A)): 26±4 percentage; Percentage of inhibition of cell cultures ([7]; Urinary bladder carcinoma (transitional cell carcinoma), Cases with high expression of the truncated form of NK1 receptor (Group B)): 94±5 percentage; Percentage of inhibition of cell cultures ([7]; Urinary bladder carcinoma (transitional cell carcinoma), Cases with low expression of the truncated form of NK1 receptor (Group A)): 25±4 percentage; inhibition of cell proliferation ([7]; cancer cell cultures that show more expression of the truncated form of NK1 receptor, compared, non-peptidic antagonists 100 micromolar, antibody 1/50): higher inhibition
